Data taken from patent publication US20260092071A1, “COMPOUNDS AND COMPOSITIONS AS SMARCA2/4 DEGRADERS AND USES THEREOF” (REGENTS OF THE UNIVERSITY OF MICHIGAN, priority 2022, published 2026).

What was measured:
SMARCA2 = SMARCA2 (Homo sapiens, UniProt P51531); assay: HiBit assay in engineered HT1080 CRISPR knock-in cell, 6 hrs (B series), SMARCA2; format: cell-based; settings: 6 hrs incubation; for DC50: read-out: SMARC A2 HT1080 HiBit DC50; for Dmax: HT-1080, HT1080 CRISPR knock-in cells, read-out: SMARC A2 HT1080 HiBit Dmax (%)
SMARCA2, sequence (P51531 whole entry): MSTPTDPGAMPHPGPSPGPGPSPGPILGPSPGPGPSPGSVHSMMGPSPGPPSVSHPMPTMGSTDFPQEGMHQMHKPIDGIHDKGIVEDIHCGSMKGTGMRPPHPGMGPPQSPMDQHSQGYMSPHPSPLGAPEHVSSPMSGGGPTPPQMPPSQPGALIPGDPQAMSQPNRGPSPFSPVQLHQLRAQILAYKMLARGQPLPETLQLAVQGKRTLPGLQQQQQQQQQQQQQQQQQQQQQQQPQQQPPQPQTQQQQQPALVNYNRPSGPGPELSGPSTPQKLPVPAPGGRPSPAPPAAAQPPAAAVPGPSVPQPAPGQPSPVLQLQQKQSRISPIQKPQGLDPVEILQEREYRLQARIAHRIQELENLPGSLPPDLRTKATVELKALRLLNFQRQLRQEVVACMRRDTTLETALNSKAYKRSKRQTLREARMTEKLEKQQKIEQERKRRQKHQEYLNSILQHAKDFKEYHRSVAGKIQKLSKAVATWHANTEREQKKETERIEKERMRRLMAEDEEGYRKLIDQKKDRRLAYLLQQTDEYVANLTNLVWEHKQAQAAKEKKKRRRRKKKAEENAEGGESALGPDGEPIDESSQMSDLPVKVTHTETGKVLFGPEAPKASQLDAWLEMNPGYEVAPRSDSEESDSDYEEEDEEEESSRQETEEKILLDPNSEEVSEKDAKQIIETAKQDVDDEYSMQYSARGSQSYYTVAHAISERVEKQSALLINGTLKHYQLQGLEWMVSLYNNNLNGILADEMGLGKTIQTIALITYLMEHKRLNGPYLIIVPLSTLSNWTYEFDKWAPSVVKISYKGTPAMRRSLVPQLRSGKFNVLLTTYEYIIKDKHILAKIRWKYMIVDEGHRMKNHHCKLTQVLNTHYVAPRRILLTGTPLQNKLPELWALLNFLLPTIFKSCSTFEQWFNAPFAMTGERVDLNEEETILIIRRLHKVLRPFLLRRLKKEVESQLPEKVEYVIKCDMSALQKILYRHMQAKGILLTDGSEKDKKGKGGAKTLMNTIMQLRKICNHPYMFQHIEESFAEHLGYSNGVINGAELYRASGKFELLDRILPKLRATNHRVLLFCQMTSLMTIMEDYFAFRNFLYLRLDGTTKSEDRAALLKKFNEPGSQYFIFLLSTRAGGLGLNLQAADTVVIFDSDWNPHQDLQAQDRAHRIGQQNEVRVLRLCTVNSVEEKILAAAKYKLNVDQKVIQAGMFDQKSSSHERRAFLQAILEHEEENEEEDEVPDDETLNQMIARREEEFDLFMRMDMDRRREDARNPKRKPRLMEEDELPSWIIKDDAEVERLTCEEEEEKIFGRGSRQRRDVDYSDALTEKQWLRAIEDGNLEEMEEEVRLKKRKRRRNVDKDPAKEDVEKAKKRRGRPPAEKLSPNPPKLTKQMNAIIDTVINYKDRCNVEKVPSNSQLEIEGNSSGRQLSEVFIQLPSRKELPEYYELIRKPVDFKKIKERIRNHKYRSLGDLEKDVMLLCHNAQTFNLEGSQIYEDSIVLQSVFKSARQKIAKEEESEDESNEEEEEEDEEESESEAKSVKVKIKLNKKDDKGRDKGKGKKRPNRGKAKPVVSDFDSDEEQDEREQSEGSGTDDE
Protocol: (§1) The HiBit assay was performed using engineered HT1080 CRISPR knock-in cell utilizing the Nano-Glo HiBiT Lytic Detection System from Promega, Cat #N3040. Compounds were transferred, 25 nL DMSO or test compounds (final DMSO @ 0.1%) to intermediate plates (Corning3570) using ECHO550. Cells were seeded onto compounds at 2000 cells/25 μL/well and incubated for 6 hrs in a tissue culture incubator at 37° C. and 5% CO2. The LgBiT Protein was diluted at 1:100 and the Nano-Glo® HiBIT Lytic Substrate 1:50 into an appropriate volume of room temperature using the Nano-Glo® HiBiT Lytic Buffer. At the end of compound incubation time, 15 ul of the detection reagent was added to each well (without LgBiT for negative control wells) using the Thermo Scientific multidrop combi. The plate was shaken for 10 mins at RT using Combi. After briefly centrifugation (2000 rpm 1 mins), plate was read on Envision (Ultrasensitive luminescence model).

SMARCA4 = SMARCA4 (Homo sapiens, UniProt P51532); assay: HiBit assay in engineered HT1080 CRISPR knock-in cell, 6 hrs (B series), SMARCA4; format: cell-based; settings: 6 hrs incubation; for DC50: read-out: SMARC A4 HT1080 HiBit DC50; for Dmax: HT-1080, HT1080 CRISPR knock-in cells, read-out: SMARC A4 HT1080 HiBit Dmax(%)
SMARCA4, sequence (P51532 whole entry): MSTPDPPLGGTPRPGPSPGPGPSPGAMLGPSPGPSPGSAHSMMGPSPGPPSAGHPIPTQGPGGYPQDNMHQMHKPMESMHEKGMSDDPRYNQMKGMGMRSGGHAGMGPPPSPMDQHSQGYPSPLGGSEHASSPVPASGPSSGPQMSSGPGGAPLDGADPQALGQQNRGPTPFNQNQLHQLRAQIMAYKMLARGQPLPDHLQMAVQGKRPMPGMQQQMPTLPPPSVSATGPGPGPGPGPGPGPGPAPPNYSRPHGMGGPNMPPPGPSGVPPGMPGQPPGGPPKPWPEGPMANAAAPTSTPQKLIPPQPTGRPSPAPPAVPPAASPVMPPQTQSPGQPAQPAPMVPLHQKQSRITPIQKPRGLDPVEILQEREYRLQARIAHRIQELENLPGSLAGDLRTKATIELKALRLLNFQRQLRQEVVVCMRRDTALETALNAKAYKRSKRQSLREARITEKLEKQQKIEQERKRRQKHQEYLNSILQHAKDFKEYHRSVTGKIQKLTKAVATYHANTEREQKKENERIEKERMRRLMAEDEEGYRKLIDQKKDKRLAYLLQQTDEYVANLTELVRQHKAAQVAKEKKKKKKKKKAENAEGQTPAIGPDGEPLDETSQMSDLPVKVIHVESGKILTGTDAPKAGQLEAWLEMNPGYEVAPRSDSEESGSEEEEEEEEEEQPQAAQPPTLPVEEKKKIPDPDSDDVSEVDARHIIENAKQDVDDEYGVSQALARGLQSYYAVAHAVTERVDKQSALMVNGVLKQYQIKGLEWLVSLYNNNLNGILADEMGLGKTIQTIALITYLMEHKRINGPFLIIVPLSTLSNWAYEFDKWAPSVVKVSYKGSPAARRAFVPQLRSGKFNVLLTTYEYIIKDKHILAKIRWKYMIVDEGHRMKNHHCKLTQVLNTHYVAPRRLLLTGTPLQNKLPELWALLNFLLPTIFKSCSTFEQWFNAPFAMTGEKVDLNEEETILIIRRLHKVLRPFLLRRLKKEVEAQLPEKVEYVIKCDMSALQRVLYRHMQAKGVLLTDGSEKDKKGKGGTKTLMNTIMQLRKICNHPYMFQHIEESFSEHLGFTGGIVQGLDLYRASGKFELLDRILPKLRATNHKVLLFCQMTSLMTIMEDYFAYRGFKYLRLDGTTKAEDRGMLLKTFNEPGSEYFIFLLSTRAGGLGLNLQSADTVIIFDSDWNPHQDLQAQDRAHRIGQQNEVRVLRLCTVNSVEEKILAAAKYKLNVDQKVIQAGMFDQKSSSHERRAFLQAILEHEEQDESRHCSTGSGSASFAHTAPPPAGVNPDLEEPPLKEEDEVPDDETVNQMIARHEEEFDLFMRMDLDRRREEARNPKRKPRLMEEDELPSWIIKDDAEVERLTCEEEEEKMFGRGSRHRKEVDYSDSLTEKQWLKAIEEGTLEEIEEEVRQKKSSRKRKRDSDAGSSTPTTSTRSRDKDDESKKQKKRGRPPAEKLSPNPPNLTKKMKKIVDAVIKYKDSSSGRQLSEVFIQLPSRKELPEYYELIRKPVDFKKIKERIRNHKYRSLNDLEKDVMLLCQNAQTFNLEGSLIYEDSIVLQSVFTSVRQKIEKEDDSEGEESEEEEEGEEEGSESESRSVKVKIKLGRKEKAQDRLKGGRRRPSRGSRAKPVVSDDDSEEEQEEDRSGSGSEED
Protocol: as §1

| DC50 (SMARCA2; HT1080 CRISPR knock-in cells) [µM] | Dmax (SMARCA2) [%] | DC50 (SMARCA4; HT1080 CRISPR knock-in cells) [µM] | Dmax (SMARCA4) [%] | SMARC A2 HT1080 HiBit Dmax (%) (SMARCA2; HT1080 CRISPR knock-in cells) | SMARC A4 HT1080 HiBit Dmax(%) (SMARCA4; HT1080 CRISPR knock-in cells) | Structure (SMILES) |
| --- | --- | --- | --- | --- | --- | --- |
| < 0.1 | 70 to 90 | 0.1 to 0.5 | < 50 | – | – | Cc1ncsc1-c1ccc([C@H](C)NC(=O)[C@@H]2C[C@@H](O)CN2C(=O)[C@@H](NC(=O)C2CC(N3CCC(c4ccc5c(c4)C(C)(C)c4nc(=O)c6c(Cl)cccc6n4-5)CC3)C2)C(C)(C)C)cc1 (stereo partly drawn) [Compound B13, (2S,4R)-1-((2S)-2-(3-(4-(4-chloro-7,7-dimethyl-5-oxo-5,7-dihydroindolo[1,2-a]quinazolin-9-yl)piperidin-1-yl)cyclobutane-1-carboxamido)-3,3-dimethylbutanoyl)-4-hydroxy-N-((S)-1-(4-(4-methylthiazol-5-yl)phenyl)ethyl)pyrrolidine-2-carboxamide] |
| < 0.1 | – | 0.1 to 0.5 | – | A (A (>90% degradation)) | B (B (70-90% degradation)) | Cc1ncsc1-c1ccc([C@H](C)NC(=O)[C@@H]2C[C@@H](O)CN2C(=O)[C@@H](NC(=O)C2CC(N3CCC(c4ccc5c(c4)C(C)(C)c4nc(=O)c6c(Cl)cccc6n4-5)CC3)C2)C(C)(C)C)cc1 (stereo partly drawn) [Compound B14, (2S,4R)-1-((2S)-2-(3-(4-(4-chloro-7,7-dimethyl-5-oxo-5,7-dihydroindolo[1,2-a]quinazolin-9-yl)piperidin-1-yl)cyclobutane-1-carboxamido)-3,3-dimethylbutanoyl)-4-hydroxy-N-((S)-1-(4-(4-methylthiazol-5-yl)phenyl)ethyl)pyrrolidine-2-carboxamide] |
| < 0.1 | > 90 | < 0.1 | > 90 | – | – | Cc1ncsc1-c1ccc([C@H](C)NC(=O)[C@@H]2C[C@@H](O)CN2C(=O)C(c2cc(CCN3CCC(c4ccc5c(c4)C(C)(C)c4nc(=O)c6c(Cl)cccc6n4-5)CC3)no2)C(C)C)cc1 (stereo partly drawn) [Compound B15, (2S,4R)-1-(2-(3-(2-(4-(4-chloro-7,7-dimethyl-5-oxo-5,7-dihydroindolo[1,2-a]quinazolin-9-yl)piperidin-1-yl)ethyl)isoxazol-5-yl)-3-methylbutanoyl)-4-hydroxy-N-((S)-1-(4-(4-methylthiazol-5-yl)phenyl)ethyl)pyrrolidine-2-carboxamide] |
| < 0.1 | > 90 | < 0.1 | 70 to 90 | – | – | Cc1ncsc1-c1ccc([C@H](C)NC(=O)[C@@H]2C[C@@H](O)CN2C(=O)[C@@H](NC(=O)c2cccc(CN3CCC(c4ccc5c(c4)C(C)(C)c4nc(=O)c6c(Cl)cccc6n4-5)CC3)c2)C(C)(C)C)cc1 [Compound B16, (2S,4R)-1-((S)-2-(3-((4-(4-chloro-7,7-dimethyl-5-oxo-5,7-dihydroindolo[1,2-a]quinazolin-9-yl)piperidin-1-yl)methyl)benzamido)-3,3-dimethylbutanoyl)-4-hydroxy-N—((S)-1-(4-(4-methylthiazol-5-yl)phenyl)ethyl)pyrrolidine-2-carboxamide] |
| < 0.1 | > 90 | < 0.1 | > 90 | – | – | Cc1ncsc1-c1ccc([C@H](C)NC(=O)[C@@H]2C[C@@H](O)CN2C(=O)[C@H](C(C)C)n2cc(CCN3CCC(c4ccc5c(c4)C(C)(C)c4nc(=O)c6c(Cl)cccc6n4-5)CC3)nn2)cc1 [Compound B17, (2S,4R)-1-((S)-2-(4-(2-(4-(4-chloro-7,7-dimethyl-5-oxo-5,7-dihydroindolo[1,2-a]quinazolin-9-yl)piperidin-1-yl)ethyl)-1H-1,2,3-triazol-1-yl)-3-methylbutanoyl)-4-hydroxy-N-((S)-1-(4-(4-methylthiazol-5-yl)phenyl)ethyl)pyrrolidine-2-carboxamide] |
| < 0.1 | > 90 | < 0.1 | 70 to 90 | – | – | Cc1ncsc1-c1ccc([C@H](C)NC(=O)[C@@H]2C[C@@H](O)CN2C(=O)[C@@H](NC(=O)C23CCC(CN4CCC(c5ccc6c(c5)C(C)(C)c5nc(=O)c7c(Cl)cccc7n5-6)CC4)(CC2)C3)C(C)(C)C)cc1 [Compound B18, (2S,4R)-1-((S)-2-(4-((4-(4-chloro-7,7-dimethyl-5-oxo-5,7-dihydroindolo[1,2-a]quinazolin-9-yl)piperidin-1-yl)methyl)bicyclo[2.2.1]heptane-1-carboxamido)-3,3-dimethylbutanoyl)-4-hydroxy-N-((S)-1-(4-(4-methylthiazol-5-yl)phenyl)ethyl)pyrrolidine-2-carboxamide] |
| < 0.1 | > 90 | 0.1 to 0.5 | 70 to 90 | – | – | Cc1ncsc1-c1ccc([C@H](C)NC(=O)[C@@H]2C[C@@H](O)CN2C(=O)[C@H](C(C)C)n2cc(C3CCC(CN4CCC(c5ccc6c(c5)C(C)(C)c5nc(=O)c7c(Cl)cccc7n5-6)CC4)CC3)nn2)cc1 (stereo partly drawn) [Compound B19, (2S,4R)-1-((S)-2-(4-(4-((4-(4-chloro-7,7-dimethyl-5-oxo-5,7-dihydroindolo[1,2-a]quinazolin-9-yl)piperidin-1-yl)methyl)cyclohexyl)-1H-1,2,3-triazol-1-yl)-3-methylbutanoyl)-4-hydroxy-N-((S)-1-(4-(4-methylthiazol-5-yl)phenyl)ethyl)pyrrolidine-2-carboxamide] |
| < 0.1 | > 90 | < 0.1 | 70 to 90 | – | – | Cc1ncsc1-c1ccc([C@H](C)NC(=O)[C@@H]2C[C@@H](O)CN2C(=O)[C@@H](NC(=O)c2ccc(CN3CCC(c4ccc5c(c4)C(C)(C)c4nc(=O)c6c(Cl)cccc6n4-5)CC3)s2)C(C)(C)C)cc1 [Compound B20, (2S,4R)-1-((S)-2-(5-((4-(4-chloro-7,7-dimethyl-5-oxo-5,7-dihydroindolo[1,2-a]quinazolin-9-yl)piperidin-1-yl)methyl)thiophene-2-carboxamido)-3,3-dimethylbutanoyl)-4-hydroxy-N-((S)-1-(4-(4-methylthiazol-5-yl)phenyl)ethyl)pyrrolidine-2-carboxamide] |
| < 0.1 | > 90 | < 0.1 | > 90 | – | – | Cc1ncsc1-c1ccc([C@H](CCCCCN2CCC(c3ccc4c(c3)-n3c(nc(=O)c5c(Cl)cccc53)C4(C)C)CC2)NC(=O)[C@@H]2C[C@@H](O)CN2C(=O)[C@@H](NC(=O)C2(F)CC2)C(C)(C)C)cc1 [Compound B21, (2S,4R)-N-((S)-6-(4-(4-chloro-7,7-dimethyl-5-oxo-5,7-dihydroindolo[1,2-a]quinazolin-10-yl)piperidin-1-yl)-1-(4-(4-methylthiazol-5-yl)phenyl)hexyl)-1-((S)-2-(1-fluorocyclopropane-1-carboxamido)-3,3-dimethylbutanoyl)-4-hydroxypyrrolidine-2-carboxamide] |
| < 0.1 | > 90 | 0.1 to 0.5 | 50 to 69 | – | – | Cc1ncsc1-c1ccc([C@H](CC(=O)N[C@H]2CC[C@H](CN3CCC(c4ccc5c(c4)-n4c(nc(=O)c6c(Cl)cccc64)C5(C)C)CC3)CC2)NC(=O)[C@@H]2C[C@@H](O)CN2C(=O)[C@@H](NC(=O)C2(F)CC2)C(C)(C)C)cc1 [Compound B22, (2S,4R)-N-((S)-3-(((1r,4S)-4-((4-(4-chloro-7,7-dimethyl-5-oxo-5,7-dihydroindolo[1,2-a]quinazolin-10-yl)piperidin-1-yl)methyl)cyclohexyl)amino)-1-(4-(4-methylthiazol-5-yl)phenyl)-3-oxopropyl)-1-((S)-2-(1-fluorocyclopropane-1-carboxamido)-3,3-dimethylbutanoyl)-4-hydroxypyrrolidine-2-carboxamide] |
| < 0.1 | > 90 | < 0.1 | 70 to 90 | – | – | Cc1ncsc1-c1ccc([C@H](C)NC(=O)[C@@H]2C[C@@H](O)CN2C(=O)[C@@H](NC(=O)C23CC(CN4CCC(c5ccc6c(c5)C(C)(C)c5nc(=O)c7c(Cl)cccc7n5-6)CC4)(C2)C3)C(C)(C)C)cc1 [Compound B23, (2S,4R)-1-((S)-2-(3-((4-(4-chloro-7,7-dimethyl-5-oxo-5,7-dihydroindolo[1,2-a]quinazolin-9-yl)piperidin-1-yl)methyl)bicyclo[1.1.1]pentane-1-carboxamido)-3,3-dimethylbutanoyl)-4-hydroxy-N-((S)-1-(4-(4-methylthiazol-5-yl)phenyl)ethyl)pyrrolidine-2-carboxamide] |

| Structure (SMILES) | DC50 (SMARCA2; HT1080 CRISPR knock-in cells) [µM] | Dmax (SMARCA2) [%] | DC50 (SMARCA4; HT1080 CRISPR knock-in cells) [µM] | Dmax (SMARCA4) [%] | SMARC A2 HT1080 HiBit Dmax (%) (SMARCA2; HT1080 CRISPR knock-in cells) | SMARC A4 HT1080 HiBit Dmax(%) (SMARCA4; HT1080 CRISPR knock-in cells) |
| --- | --- | --- | --- | --- | --- | --- |
| Cc1ncsc1-c1ccc([C@H](C)NC(=O)[C@@H]2C[C@@H](O)CN2C(=O)[C@@H](c2cc(OCCCCN3CCC(c4ccc5c(c4)C(C)(C)c4nc(=O)c6c(Cl)cccc6n4-5)CC3)no2)C(C)C)cc1 [Compound B12, (2S,4R)-1-((R)-2-(3-(4-(4-(4-chloro-7,7-dimethyl-5-oxo-5,7-dihydroindolo[1,2-a]quinazolin-9-yl)piperidin-1-yl)butoxy)isoxazol-5-yl)-3-methylbutanoyl)-4-hydroxy-N-((S)-1-(4-(4-methylthiazol-5-yl)phenyl)ethyl)pyrrolidine-2-carboxamide] | < 0.1 | > 90 | < 0.1 | > 90 | – | – |
